Reference: ChEMBL document CHEMBL1201862, “PubChem BioAssay data set” (2004)
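Assay format: 96-well plates, 48-hour exposure. The concentration for 50% growth inhibition is given as GI50.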 The source made the active and inactive calls. No stated cut-off is given here; in the data, active = GI50 up to about 1.1 µM and inactive = higher.

Legend:
Assay in all cases: DTP human tumour cell line panel, 48 h
RPMI-8226 = test system: RPMI-8226
HCC 2998 = test system: HCC 2998
A549 = test system: A549
MDA-MB-435 = test system: MDA-MB-435
SNB-19 = test system: SNB-19
KM12 = test system: KM12
SN12C = test system: SN12C
Malme-3M = test system: Malme-3M
OVCAR-4 = test system: OVCAR-4
CAKI-1 = test system: CAKI-1
LOX IMVI = test system: LOX IMVI
SK-MEL-5 = test system: SK-MEL-5
NCI-H226 = test system: NCI-H226
HCT-15 = test system: HCT-15
SF-295 = test system: SF-295
MDA-MB-231 = test system: MDA-MB-231
M14 = test system: M14
UO-31 = test system: UO-31
DU-145 = test system: DU-145
OVCAR-8 = test system: OVCAR-8

How did the GI50 (RPMI-8226) turn out when COC(=O)C1CCOC(C)N1C(=O)OC(C)(C)C (stereo not given) was run?
Its GI50 is > 100 µM (inactive).

And the GI50 (HCC 2998)?
Its GI50 is > 100 µM (inactive).

What about the GI50 (A549) of the same molecule?
The GI50 was > 100 µM (inactive).

And the GI50 (MDA-MB-435)?
Its GI50 is > 100 µM (inactive).

And the GI50 (SNB-19)?
Its GI50 is > 100 µM (inactive).

And the GI50 (KM12)?
Its GI50 is > 100 µM (inactive).

And the GI50 (SN12C)?
Its GI50 is > 100 µM (inactive).

What about the GI50 (Malme-3M) of the same molecule?
The GI50 was > 100 µM (inactive).

What about the GI50 (OVCAR-4) of the same molecule?
The GI50 was > 100 µM (inactive).

What about the GI50 (CAKI-1) of the same molecule?
Its GI50 is > 100 µM (inactive).

What about the GI50 (LOX IMVI) of the same molecule?
Its GI50 is > 100 µM (inactive).

And the GI50 (SK-MEL-5)?
The GI50 was > 100 µM (inactive).

And the GI50 (NCI-H226)?
The GI50 was > 100 µM (inactive).

What about the GI50 (HCT-15) of the same molecule?
Its GI50 is over 100 µM.

What about the GI50 (SF-295) of the same molecule?
The GI50 was > 100 µM (inactive).

And the GI50 (MDA-MB-231)?
The GI50 was > 100 µM (inactive).

What about the GI50 (M14) of the same molecule?
The GI50 was > 100 µM (inactive).

And the GI50 (UO-31)?
The GI50 was > 100 µM (inactive).

What about the GI50 (DU-145) of the same molecule?
The GI50 was > 100 µM (inactive).

What about the GI50 (OVCAR-8) of the same molecule?
Its GI50 is > 100 µM (inactive).

How did the GI50 (RPMI-8226) turn out when OCCNc1ncnc2[nH]cnc12 was run?
The GI50 was > 100 µM (inactive).

What about the GI50 (HCC 2998) of the same molecule?
Its GI50 is > 100 µM (inactive).

What about the GI50 (A549) of the same molecule?
Its GI50 is > 100 µM (inactive).

What about the GI50 (MDA-MB-435) of the same molecule?
Its GI50 is > 100 µM (inactive).

What about the GI50 (SNB-19) of the same molecule?
Its GI50 is > 100 µM (inactive).

What about the GI50 (KM12) of the same molecule?
The GI50 was > 100 µM (inactive).

And the GI50 (SN12C)?
Its GI50 is > 100 µM (inactive).

And the GI50 (Malme-3M)?
The GI50 was > 100 µM (inactive).

What about the GI50 (OVCAR-4) of the same molecule?
The GI50 was > 100 µM (inactive).

What about the GI50 (CAKI-1) of the same molecule?
The GI50 was > 100 µM (inactive).

And the GI50 (LOX IMVI)?
The GI50 was > 100 µM (inactive).

And the GI50 (SK-MEL-5)?
The GI50 was > 100 µM (inactive).

And the GI50 (NCI-H226)?
Its GI50 is > 100 µM (inactive).

What about the GI50 (HCT-15) of the same molecule?
Its GI50 is over 100 µM.

What about the GI50 (SF-295) of the same molecule?
The GI50 was > 100 µM (inactive).

And the GI50 (MDA-MB-231)?
The GI50 was > 100 µM (inactive).

What about the GI50 (M14) of the same molecule?
Its GI50 is > 100 µM (inactive).

What about the GI50 (UO-31) of the same molecule?
Its GI50 is > 100 µM (inactive).

And the GI50 (DU-145)?
Its GI50 is > 100 µM (inactive).

What about the GI50 (OVCAR-8) of the same molecule?
Its GI50 is > 100 µM (inactive).

For C[N+]1=C2[B-](C(C)(C)C)=[N+](C(C)(C)C)[B-]2(C(C)(C)C)[N+](C)=C2[B-](C(C)(C)C)=[N+](C(C)(C)C)[B-]21C(C)(C)C (stereo not given), which GI50 (RPMI-8226) is on record?
The GI50 was > 100 µM (inactive).

And the GI50 (HCC 2998)?
The GI50 was > 100 µM (inactive).

And the GI50 (A549)?
Its GI50 is > 100 µM (inactive).

And the GI50 (MDA-MB-435)?
The GI50 was > 100 µM (inactive).

What about the GI50 (SNB-19) of the same molecule?
The GI50 was > 100 µM (inactive).

What about the GI50 (KM12) of the same molecule?
Its GI50 is > 100 µM (inactive).

What about the GI50 (SN12C) of the same molecule?
Its GI50 is > 100 µM (inactive).

What about the GI50 (Malme-3M) of the same molecule?
Its GI50 is > 100 µM (inactive).

And the GI50 (OVCAR-4)?
Its GI50 is > 100 µM (inactive).

And the GI50 (CAKI-1)?
The GI50 was > 100 µM (inactive).

And the GI50 (LOX IMVI)?
Its GI50 is > 100 µM (inactive).

What about the GI50 (SK-MEL-5) of the same molecule?
Its GI50 is > 100 µM (inactive).

And the GI50 (NCI-H226)?
Its GI50 is > 100 µM (inactive).

What about the GI50 (HCT-15) of the same molecule?
Its GI50 is over 100 µM.

What about the GI50 (SF-295) of the same molecule?
The GI50 was 61.9 µM (inactive).

What about the GI50 (MDA-MB-231) of the same molecule?
Its GI50 is > 100 µM (inactive).

What about the GI50 (M14) of the same molecule?
The GI50 was > 100 µM (inactive).

What about the GI50 (UO-31) of the same molecule?
The GI50 was > 100 µM (inactive).

What about the GI50 (DU-145) of the same molecule?
The GI50 was > 100 µM (inactive).

What about the GI50 (OVCAR-8) of the same molecule?
The GI50 was > 100 µM (inactive).

For Cc1cccc(NC(=S)N/N=C(/c2ccccc2)c2ccccn2)c1, which GI50 (RPMI-8226) is on record?
Its GI50 is < 0.0182 µM (active).

What about the GI50 (HCC 2998) of the same molecule?
Its GI50 is 2.84 µM (inactive).

And the GI50 (A549)?
The GI50 was 0.22 µM (active).

What about the GI50 (MDA-MB-435) of the same molecule?
Its GI50 is 0.574 µM (active).

And the GI50 (SNB-19)?
Its GI50 is 3.6 µM (inactive).

And the GI50 (KM12)?
Its GI50 is 0.0796 µM (active).

What about the GI50 (SN12C) of the same molecule?
The GI50 was 0.359 µM (active).

What about the GI50 (Malme-3M) of the same molecule?
The GI50 was 0.174 µM (active).

And the GI50 (OVCAR-4)?
Its GI50 is 0.368 µM (active).

And the GI50 (CAKI-1)?
Its GI50 is 0.249 µM (active).

What about the GI50 (LOX IMVI) of the same molecule?
The GI50 was 0.0224 µM (active).

What about the GI50 (SK-MEL-5) of the same molecule?
The GI50 was 0.108 µM (active).

What about the GI50 (NCI-H226) of the same molecule?
Its GI50 is 0.207 µM (active).

What about the GI50 (HCT-15) of the same molecule?
Its GI50 is 0.0255 µM.

What about the GI50 (SF-295) of the same molecule?
Its GI50 is 0.173 µM (active).

And the GI50 (MDA-MB-231)?
The GI50 was 0.0378 µM (active).

What about the GI50 (M14) of the same molecule?
The GI50 was < 0.01 µM (active).

And the GI50 (UO-31)?
Its GI50 is 0.385 µM (active).

What about the GI50 (DU-145) of the same molecule?
Its GI50 is 0.942 µM (active).

And the GI50 (OVCAR-8)?
Its GI50 is 0.038 µM (active).

COc1ccc(/N=C(Nc2ccc(OC)cc2)/C(=N/c2ccc(OC)cc2)Nc2ccc(OC)cc2)cc1 was tested. Which GI50 (RPMI-8226) did it give?
The GI50 was 5.66 µM (inactive).

What about the GI50 (HCC 2998) of the same molecule?
The GI50 was > 100 µM (inactive).

What about the GI50 (A549) of the same molecule?
The GI50 was 96.2 µM (inactive).

And the GI50 (MDA-MB-435)?
Its GI50 is > 100 µM (inactive).

What about the GI50 (SNB-19) of the same molecule?
Its GI50 is > 100 µM (inactive).

What about the GI50 (KM12) of the same molecule?
The GI50 was 14.7 µM (inactive).

And the GI50 (SN12C)?
The GI50 was > 100 µM (inactive).

And the GI50 (Malme-3M)?
Its GI50 is > 100 µM (inactive).

What about the GI50 (OVCAR-4) of the same molecule?
The GI50 was > 100 µM (inactive).

What about the GI50 (CAKI-1) of the same molecule?
Its GI50 is > 100 µM (inactive).

What about the GI50 (LOX IMVI) of the same molecule?
The GI50 was > 100 µM (inactive).

What about the GI50 (SK-MEL-5) of the same molecule?
The GI50 was > 100 µM (inactive).

And the GI50 (NCI-H226)?
Its GI50 is > 100 µM (inactive).

What about the GI50 (HCT-15) of the same molecule?
Its GI50 is over 100 µM.

And the GI50 (SF-295)?
Its GI50 is > 100 µM (inactive).

And the GI50 (MDA-MB-231)?
The GI50 was > 100 µM (inactive).

And the GI50 (M14)?
The GI50 was > 100 µM (inactive).

What about the GI50 (UO-31) of the same molecule?
Its GI50 is 5.25 µM (inactive).

And the GI50 (DU-145)?
The GI50 was > 100 µM (inactive).

What about the GI50 (OVCAR-8) of the same molecule?
The GI50 was > 100 µM (inactive).

What does the source list for COC(=O)C(CBr)CBr?
GI50 (RPMI-8226): 0.757 µM (active); GI50 (HCC 2998): 4.49 µM (inactive); GI50 (A549): 18.2 µM (inactive); GI50 (MDA-MB-435): 3.33 µM (inactive); GI50 (SNB-19): 8.51 µM (inactive); GI50 (KM12): 8.04 µM (inactive); GI50 (SN12C): 3.9 µM (inactive); GI50 (Malme-3M): 2.2 µM (inactive); GI50 (OVCAR-4): 4.03 µM (inactive); GI50 (CAKI-1): 5.51 µM (inactive); GI50 (LOX IMVI): 2.6 µM (inactive); GI50 (SK-MEL-5): 8.75 µM (inactive); GI50 (NCI-H226): 13.3 µM (inactive); GI50 (HCT-15): 1.71 µM; GI50 (SF-295): 16.2 µM (inactive); GI50 (MDA-MB-231): 2.12 µM (inactive); GI50 (M14): 2.15 µM (inactive); GI50 (UO-31): 5.65 µM (inactive); GI50 (DU-145): 16.6 µM (inactive); GI50 (OVCAR-8): 3.41 µM (inactive)
